Test results: ChEMBL document CHEMBL3885881, “DrugMatrix”

Organism: Rattus norvegicus
Test: DrugMatrix - Regimen: Daily Repeat
Type: toxicity, organism-based, Sprague-Dawley
Parameters: regimen Daily Repeat, gender Male, age 6-8 weeks
Details: in vivo, iv, vehicle 100 % SALINE; for ABSOLUTE BASOPHIL / ABSOLUTE EOSINOPHIL / ABSOLUTE LYMPHOCYTE / ABSOLUTE MONOCYTE / ABSOLUTE SEGMENTED NEUTROPHIL / BASOPHIL / EOSINOPHIL / ERYTHROCYTE COUNT / HEMATOCRIT / HEMOGLOBIN / LEUKOCYTE COUNT / LYMPHOCYTE / MEAN CORPUSCULAR HEMOGLOBIN / MEAN CORPUSCULAR HEMOGLOBIN CONCENTRATION / MEAN CORPUSCULAR VOLUME / MONOCYTE / NEUTROPHIL / NUCLEATED RED BLOOD CELLS / PLATELET COUNT: tissue Blood; for ALANINE AMINOTRANSFERASE / ALBUMIN / ALKALINE PHOSPHATASE / ASPARTATE AMINOTRANSFERASE / BLOOD UREA NITROGEN / CARBON DIOXIDE / CHLORIDE / CHOLESTEROL / CREATINE PHOSPHOKINASE / CREATININE / GLUCOSE / LACTATE DEHYDROGENASE / LIPASE / PHOSPHORUS / POTASSIUM / SODIUM / TOTAL BILIRUBIN / TOTAL PROTEIN / URIC ACID: tissue Plasma
[1] = 120 mg/kg, 72 h, dose level High, time 3 day
[2] = 120 mg/kg, 120 h, dose level High, time 5 day
[3] = […], 72 h, dose 8.2 mg/Kg, dose level Low, time 3 day
[4] = […], 120 h, dose 8.2 mg/Kg, dose level Low, time 5 day

[H]/N=C(/N)N[C@H]1[C@H](O)[C@@H](O)[C@H](O[C@@H]2O[C@@H](C)[C@](O)(C=O)[C@H]2O[C@@H]2O[C@@H](CO)[C@H](O)[C@@H](O)[C@@H]2NC)[C@@H](N/C(N)=N\[H])[C@@H]1O [STREPTOMYCIN]
ABSOLUTE BASOPHIL [1]: 0 CELLS/uL
ABSOLUTE EOSINOPHIL [1]: 272.33 CELLS/uL
ABSOLUTE LYMPHOCYTE [1]: 11274.33 CELLS/uL
ABSOLUTE MONOCYTE [1]: 397 CELLS/uL
ABSOLUTE SEGMENTED NEUTROPHIL [1]: 1289.67 CELLS/uL
BASOPHIL [1]: 0%
EOSINOPHIL [1]: 2%
ERYTHROCYTE COUNT [1]: 5.88 x10E6/uL
HEMATOCRIT [1]: 36.13%
HEMOGLOBIN [1]: 13.67 G/DL
LEUKOCYTE COUNT [1]: 13.23 x10E3/uL
LYMPHOCYTE [1]: 85.33%
MEAN CORPUSCULAR HEMOGLOBIN [1]: 23.3 pg
MEAN CORPUSCULAR HEMOGLOBIN CONCENTRATION [1]: 37.8 G/DL
MEAN CORPUSCULAR VOLUME [1]: 61.53 fL
MONOCYTE [1]: 3%
NEUTROPHIL [1]: 9.67%
NUCLEATED RED BLOOD CELLS [1]: 0.33 /100WBC
PLATELET COUNT [1]: 1314 x10E3/uL
ALANINE AMINOTRANSFERASE [1]: 43 u/L
ALBUMIN [1]: 4.27 G/DL
ALKALINE PHOSPHATASE [1]: 316.67 u/L
ASPARTATE AMINOTRANSFERASE [1]: 75.67 u/L
BLOOD UREA NITROGEN [1]: 18.33 mg/dL
CARBON DIOXIDE [1]: 24.67 mmol/L
CHLORIDE [1]: 106 MEQ/L
CHOLESTEROL [1]: 86 mg/dL
CREATINE PHOSPHOKINASE [1]: 233.67 u/L
CREATININE [1]: 0.28 mg/dL
GLUCOSE [1]: 150.33 mg/dL
LACTATE DEHYDROGENASE [1]: 355.67 u/L
LIPASE [1]: 9 u/L
PHOSPHORUS [1]: 12.8 mg/dL
POTASSIUM [1]: 6.3 MEQ/L
SODIUM [1]: 147.3 MEQ/L
TOTAL BILIRUBIN [1]: 0.23 mg/dL
TOTAL PROTEIN [1]: 6.03 G/DL
URIC ACID [1]: 1.3 mg/dL
ABSOLUTE BASOPHIL [2]: 0 CELLS/uL
ABSOLUTE EOSINOPHIL [2]: 0 CELLS/uL
ABSOLUTE LYMPHOCYTE [2]: 15247.67 CELLS/uL
ABSOLUTE MONOCYTE [2]: 224.67 CELLS/uL
ABSOLUTE SEGMENTED NEUTROPHIL [2]: 2294.33 CELLS/uL
BASOPHIL [2]: 0%
EOSINOPHIL [2]: 0%
ERYTHROCYTE COUNT [2]: 5.9 x10E6/uL
HEMATOCRIT [2]: 36.63%
HEMOGLOBIN [2]: 13.87 G/DL
LEUKOCYTE COUNT [2]: 17.77 x10E3/uL
LYMPHOCYTE [2]: 85.33%
MEAN CORPUSCULAR HEMOGLOBIN [2]: 23.5 pg
MEAN CORPUSCULAR HEMOGLOBIN CONCENTRATION [2]: 37.83 G/DL
MEAN CORPUSCULAR VOLUME [2]: 62.1 fL
MONOCYTE [2]: 1.33%
NEUTROPHIL [2]: 13.33%
NUCLEATED RED BLOOD CELLS [2]: 0 /100WBC
PLATELET COUNT [2]: 1316.67 x10E3/uL
ALANINE AMINOTRANSFERASE [2]: 42.33 u/L
ALBUMIN [2]: 4.33 G/DL
ALKALINE PHOSPHATASE [2]: 270 u/L
ASPARTATE AMINOTRANSFERASE [2]: 91 u/L
BLOOD UREA NITROGEN [2]: 18.67 mg/dL
CARBON DIOXIDE [2]: 25 mmol/L
CHLORIDE [2]: 104 MEQ/L
CHOLESTEROL [2]: 61 mg/dL
CREATINE PHOSPHOKINASE [2]: 601.67 u/L
CREATININE [2]: 0.19 mg/dL
GLUCOSE [2]: 177.67 mg/dL
LACTATE DEHYDROGENASE [2]: 433 u/L
LIPASE [2]: 8.67 u/L
PHOSPHORUS [2]: 14 mg/dL
POTASSIUM [2]: 6.21 MEQ/L
SODIUM [2]: 147.03 MEQ/L
TOTAL BILIRUBIN [2]: 0.13 mg/dL
TOTAL PROTEIN [2]: 6.3 G/DL
URIC ACID [2]: 1.83 mg/dL
ABSOLUTE BASOPHIL [3]: 0 CELLS/uL
ABSOLUTE EOSINOPHIL [3]: 0 CELLS/uL
ABSOLUTE LYMPHOCYTE [3]: 16010 CELLS/uL
ABSOLUTE MONOCYTE [3]: 231.33 CELLS/uL
ABSOLUTE SEGMENTED NEUTROPHIL [3]: 1025.33 CELLS/uL
BASOPHIL [3]: 0%
EOSINOPHIL [3]: 0%
ERYTHROCYTE COUNT [3]: 6.28 x10E6/uL
HEMATOCRIT [3]: 40.03%
HEMOGLOBIN [3]: 14.6 G/DL
LEUKOCYTE COUNT [3]: 17.27 x10E3/uL
LYMPHOCYTE [3]: 92.67%
MEAN CORPUSCULAR HEMOGLOBIN [3]: 23.33 pg
MEAN CORPUSCULAR HEMOGLOBIN CONCENTRATION [3]: 36.47 G/DL
MEAN CORPUSCULAR VOLUME [3]: 63.9 fL
MONOCYTE [3]: 1.33%
NEUTROPHIL [3]: 6%
NUCLEATED RED BLOOD CELLS [3]: 0 /100WBC
PLATELET COUNT [3]: 1313.67 x10E3/uL
ALANINE AMINOTRANSFERASE [3]: 51.67 u/L
ALBUMIN [3]: 4.5 G/DL
ALKALINE PHOSPHATASE [3]: 417.33 u/L
ASPARTATE AMINOTRANSFERASE [3]: 82.67 u/L
BLOOD UREA NITROGEN [3]: 13.67 mg/dL
CARBON DIOXIDE [3]: 23 mmol/L
CHLORIDE [3]: 105.33 MEQ/L
CHOLESTEROL [3]: 84 mg/dL
CREATINE PHOSPHOKINASE [3]: 198.33 u/L
CREATININE [3]: 0.22 mg/dL
GLUCOSE [3]: 155.33 mg/dL
LACTATE DEHYDROGENASE [3]: 234 u/L
LIPASE [3]: 9 u/L
PHOSPHORUS [3]: 14.77 mg/dL
POTASSIUM [3]: 7.14 MEQ/L
SODIUM [3]: 148.8 MEQ/L
TOTAL BILIRUBIN [3]: 0.2 mg/dL
TOTAL PROTEIN [3]: 6.33 G/DL
URIC ACID [3]: 2.1 mg/dL
ABSOLUTE BASOPHIL [4]: 0 CELLS/uL
ABSOLUTE EOSINOPHIL [4]: 277 CELLS/uL
ABSOLUTE LYMPHOCYTE [4]: 11716.67 CELLS/uL
ABSOLUTE MONOCYTE [4]: 225 CELLS/uL
ABSOLUTE SEGMENTED NEUTROPHIL [4]: 1048 CELLS/uL
BASOPHIL [4]: 0%
EOSINOPHIL [4]: 2%
ERYTHROCYTE COUNT [4]: 5.69 x10E6/uL
HEMATOCRIT [4]: 36.1%
HEMOGLOBIN [4]: 13.83 G/DL
LEUKOCYTE COUNT [4]: 13.27 x10E3/uL
LYMPHOCYTE [4]: 88.67%
MEAN CORPUSCULAR HEMOGLOBIN [4]: 24.27 pg
MEAN CORPUSCULAR HEMOGLOBIN CONCENTRATION [4]: 38.33 G/DL
MEAN CORPUSCULAR VOLUME [4]: 63.43 fL
MONOCYTE [4]: 1.67%
NEUTROPHIL [4]: 7.67%
NUCLEATED RED BLOOD CELLS [4]: 0 /100WBC
PLATELET COUNT [4]: 1319.67 x10E3/uL
ALANINE AMINOTRANSFERASE [4]: 44 u/L
ALBUMIN [4]: 4.43 G/DL
ALKALINE PHOSPHATASE [4]: 308.33 u/L
ASPARTATE AMINOTRANSFERASE [4]: 87.33 u/L
BLOOD UREA NITROGEN [4]: 20.67 mg/dL
CARBON DIOXIDE [4]: 24.33 mmol/L
CHLORIDE [4]: 106.67 MEQ/L
CHOLESTEROL [4]: 58.67 mg/dL
CREATINE PHOSPHOKINASE [4]: 307 u/L
CREATININE [4]: 0.18 mg/dL
GLUCOSE [4]: 143 mg/dL
LACTATE DEHYDROGENASE [4]: 514.33 u/L
LIPASE [4]: 9 u/L
PHOSPHORUS [4]: 12.6 mg/dL
POTASSIUM [4]: 6.63 MEQ/L
SODIUM [4]: 147.1 MEQ/L
TOTAL BILIRUBIN [4]: 0.17 mg/dL
TOTAL PROTEIN [4]: 6.27 G/DL
URIC ACID [4]: 1.5 mg/dL
